Experimental data as given in US5162302A, “Endocrine manipulation to improve body composition of poultry” (University of Delaware, priority 1990, dated 1992).
Read-outs that look alike come from different tables or passages of the source.

Tests used:
[1] = Three daily intramuscular injections of GRF and dietary T3: growth, feed efficiency, body composition (Example 1); assay type: in vivo, broiler chickens
Description: Bird management. One day-old broiler cockerels (Ross x Arbor acre) were obtained from a commercial hatchery (Perdue Hatchery, Salisburg, MD). Five birds were randomly assigned to each of 24 pens during the first three weeks. Birds were housed in a Petersime battery-brooder and maintained in a environmentally controlled room on a 20L:4D light/dark cycle. The temperature was held at 33° C. for the first week and reduced 3° C. at weekly intervals. During this period, the chicks were provided with commercial starter ration (3100 kcal ME/kg and 22% crude protein) and water ad libitum.
At 3 weeks-of-age, four birds per pen were moved to wire cages. From 3 to 4 weeks of age, birds were fed a commercial broiler grower/finisher ration containing 19% crude protein and 3200 kcal metabolizable energy/kg. At 4 weeks of age, birds were fed a special high-protein ration that contained 25% crude protein and 3250 kcal ME/kg feed (See Table 1). […] During the experimental period (5 to 7 weeks of age), individual body weights and feed consumption were determined at weekly intervals for calculation of average daily gain (ADG), average daily feed consumption (ADFC) and gain-to-feed ratio (GTF).
Hormone treatments. […] Synthetic human pancreatic growth releasing factor (hpGRF1-44) was obtained from Pitman-Moore, Inc. (Terre Haute, IN). […] Begining at 35 days of age, broiler cockerels were given three daily intramuscular injections of buffer (0.05M sodium acetate, pH 5.0) or GRF dissolved in buffer (10 μg/kg body weight) each day at 0800, 1600, and 2400 hr. Each bird was weighed a 3 day intervals to adjust GRF dosage.
At 49 days of age, chickens were starved for 24 hours and killed for determination of final body, abdominal fat pad, and liver weights. Carcasses from one-half of the birds in each pen (2 birds/pen) were frozen for determination of body composition by proximate analysis. Each frozen carcass, including the liver and abdominal fat, was ground twice in meat grinder fitted with a one-quarter inch dye (Biro Model 5, Biro Mfg. Co., Marblehead, OH). Aliquots of the ground meat were dried at 80° C. for moisture determination. Dried samples were analyzed for protein by macro-Kjeldahl, fat by ether extraction, and ash contents according to established analytical procedures. Body composition data are presented as a percent of final body weight at 7 weeks of age.
Statistical analyses. All data were analyzed with the pen as the experimental unit since dietary treatments were applied to the pen and feed consumption was determined for each pen. Least squares regression analysis was used to test for effects of treatments on ADG, ADFC, GTF, body weight and body composition. Significant differences (P<0.05) among treatments were determined by Fisher's least significant difference test.

[2] = 0.25 to 1 ppm in diet throughout the entire growth cycle; cited from earlier work
[3] = Dietary T3 in finishing feed, dose-response: plasma T3, muscle protein turnover, fat, growth, hormones
[4] = Three daily intravenous injections of GRF and dietary T3: growth, feed efficiency, body composition (Example 2); assay type: in vivo, broiler chickens
Text: Bird management. Day-old broiler cockerels (Ross X Arbor Acre strain) were obtained from a commercial hatchery (Longnecker Hatchery, Elizabethtown, PA) and randomly assigned in groups of four birds to pens in a heated-battery brooder. Chicks were provided with a commercial broiler-starter ration (Pennfield Corp., Lancaster, PA), containing 3100 kcal metabolizable energy/kg feed and 23% crude protein, and water ad libitum. At 3 weeks of age, birds were transferred to wire pens held in a controlled-environment room. From 3 to 7 weeks of age, birds were maintained under a 20L:4D light-dark cycle at 21° C. and continuously provided with water and a commercial broiler-finisher ration containing 3250 kcal metabolizable energy/kg feed and 20% crude protein. Broiler cockerels were given three daily intravenous injections of either buffer (0.1M phosphate buffer, pH 7.0; BC) or GRF dissloved in buffer (25 μg/kg body weight) at 0800, 1600, and 2400 hr.
Dietary T3 and GRF Treatments. Four treatments were randomly assigned to pens in a randomized-complete-block design with three replicate pens per treatment. […] All birds were weighted at three day intervals to adjust the daily GRF dosage. Recombinant-derived human growth hormone-releasing factor (rhGRF1-44) was obtained from Pitman-Moore, Inc. (Terre Haute, IN).
The average daily gain (ADG), average daily feed consuption (ADFC) and the gain-to-feed ratio (GTF) were determined for the two week period (5 to 7 weeks of age). At the end of the experiment (7 weeks of age), each bird was killed to obtain the final body, abdominal fat and liver weights. Carcasses were frozen for determination of body composition as described in Example 1.
Statistical analyses. A randomized-complete-block design was used in which the four treatments were replicated in three pens. The growth data were analyzed with the pen as the experimental unit, since feed comsumption was determined for each pen of four birds. Significant differences (P≤0.05) due to the main effect of treatment were determined by Fisher's Least Significant Difference test.

[5] = 1 to 10 μg TRH/day i.v. from 4 to 6 or 8 weeks-of-age; cited from earlier work
[6] = Protein:fat ratio of broiler chickens under hormone treatments; assay type: in vivo; details: at the doses tested
[7] = TRH 1 or 10 μg/kg/day, GRF 10 μg/kg/day i.v., 21 days, cited from earlier work
[8] = induced hypothyroid state; cited from earlier work
[9] = finishing pigs, injection; cited from earlier work
[10] = 5 to 7 weeks of age, T3 0.25 ppm, GRF 10 μg/kg i.m. 3x daily, mean ± SEM of four pens
[11] = 7 weeks of age, i.m. GRF, four pens (2 birds/pen)
[12] = 7 weeks of age, i.m. GRF, mean ± SEM of four pens
[13] = 0.25 ppm T3, compared to the control group
[14] = plasma thyroid hormone bioactivity 360-1200% of normal
[15] = 5 to 7 weeks of age, T3 0.25 ppm, GRF 25 μg/kg i.v. 3x daily, mean ± SEM of three pens
[16] = 7 weeks of age, i.v. GRF, mean ± SEM of twelve cockerels
[17] = 7 weeks of age, i.v. GRF, twelve cockerels

With N[C@@H](Cc1cc(I)c(Oc2ccc(O)c(I)c2)c(I)c1)C(=O)O [T3, 3,3',5-triiodo-L-thyronine] the “ADG (average daily weight gain)” value ([1]; 5 to 7 weeks of age, T3 0.25 ppm in feed, GRF 10 μg/kg i.m. three times daily, 25% protein ration, mean ± SEM of four pens) was 76.5 ± 3.0, the “ADFC (average daily feed consumption)” value [1, 10] was 185.1 ± 7.1 and the “GTF (gain-to-feed ratio)” value [1, 10] was 0.414 ± 0.01. The “Reduction of total body fat content” value ([1]; 7-week-old chickens, compared to the CF+BI group) was 10%, the “Final body weight BW” value ([1]; 7 weeks of age, T3 0.25 ppm, GRF 10 μg/kg i.m. 3x daily, mean ± SEM of four pens) was 2.75 ± 0.05 kg and the “Body composition: ash” value [1, 11] was 2.24 ± 0.08 % BW. The “Body composition: fat” value [1, 11] was 10.0 ± 0.78 % BW, the “Body composition: protein” value [1, 11] was 17.1 ± 0.26 % BW and the “Body composition: water” value [1, 11] was 67.6 ± 0.70 % BW. The “Relative weight of abdominal fat pad” value [1, 12] was 1.12 ± 0.11 % BW, the “Relative weight of liver” value [1, 12] was 1.99 ± 0.09 % BW and the “Reduction of abdominal fat weight” value ([1]; compared to the CF+BC group, P<0.05) was 31%. The “Effect on ADG, ADFC or GTF” value ([1]; dietary T3 or daily i.m. GRF) was “no effect”, the “Growth performance (body weight gain and feed efficiency)” value [2] was “reduced body weight gain and feed efficiency” and the “Effect upon weight gain” value ([3]; 0.1 ppm T3 in finishing feed) was “no significant adverse effect”. For the same molecule, the “Increase of protein accretion in breast and leg muscle” value ([3]; 0.25 ppm T3) was 45-88%, the “Reduction of abdominal fat weight” value ([3]; 0.25 ppm T3) was 22% and the “Increase of FAR of leg muscle” value [3, 13] was 45%. For the same molecule, the “Increase of FAR of pectoralis major (breast muscle)” value [3, 13] was 88%, the “Effect on growth rate” value ([3]; 0.25 ppm T3 in feed) was “virtually no statistically significant adverse effect” and the “Plasma T3 level” value ([3]; 0.25 ppm T3 in feed) was 2.7 ± 0.2 ng/mL. The “Plasma T3 level (control group = 100% of normal)” value ([3]; 0.25 ppm T3 in feed) was ~ 208%, the “Increase of rate of protein synthesis in the leg muscle” value ([3]; 0.25 to 4 ppm of feed, p<0.05) was “at least 49%” and the “Plasma T3 level” value ([3]; 1 ppm T3 in feed) was 4.5 ± 0.8 ng/mL. For the same molecule, the “Plasma T3 level (control group = 100% of normal)” value ([3]; 1 ppm T3 in feed) was ~ 346%, the “Effect upon weight gain” value ([3]; 1 ppm T3 in finishing feed) was “some deviation from normal weight gain” and the “Plasma T3 level” value ([3]; 4 ppm T3 in feed) was 16.3 ± 2.6 ng/mL. For the same molecule, the “Plasma T3 level (control group = 100% of normal)” value ([3]; 4 ppm T3 in feed) was ~ 125%, the “Increase of fractional degradation rate of breast muscle” value ([3]; 4 ppm of T3) was 116% and the “Increase of fractional synthesis rate (FSR) of the pectoralis major (breast) muscle” value ([3]; 4 ppm of T3, p<0.05) was 56%. The “Fractional Accretion Rate (FAR) in the pectoralis major (breast) muscle” value ([3]; T3 doses in the 1 to 4 ppm range) was “affected negatively”, the “Plasma GH levels” value ([3]; dietary T3 during the finishing phase) was “decrease” and the Glucagon secretion ([3]; dietary T3 treatment alone) was “increased”. For the same molecule, the Insulin secretion ([3]; dietary T3 treatment alone) was “depresses”, the “Protein synthesis rate in breast muscle” value ([3]; lower doses of T3 (0.25 to 1 ppm)) was “only a slight effect” and the “Depression of body weight gain” value [3, 14] was ≤ 57%. For the same molecule, the “Depression of feed consumption” value [3, 14] was ≤ 35%, the “ADG (average daily weight gain)” value ([4]; 5 to 7 weeks of age, T3 0.25 ppm in feed, GRF 25 μg/kg i.v. three times daily, mean ± SEM of three pens) was 70.7 ± 5.3 and the “ADFC (average daily feed consumption)” value [4, 15] was 157.0 ± 7.2. For the same molecule, the “GTF (gain-to-feed ratio)” value [4, 15] was 0.448 ± 0.021, the “Increase of body water content” value ([4]; 7 weeks of age, vs control) was 2% and the “Reduction of body fat content” value ([4]; 7 weeks of age, vs control) was 10%. The “Final body weight BW” value [4, 16] was 2.82 ± 0.06 kg, the “Relative weight of abdominal fat” value [4, 16] was 1.54 ± 0.14 % BW and the “Relative weight of liver” value [4, 16] was 2.06 ± 0.05 % BW. The “Body composition: ash” value [4, 17] was 2.45 ± 0.04 % BW, the “Body composition: fat” value [4, 17] was 11.5 ± 0.64 % BW and the “Body composition: protein” value [4, 17] was 18.8 ± 0.19 % BW. The “Body composition: water” value [4, 17] was 67.0 ± 0.50 % BW, the “Reduction of abdominal fat weight” value ([4]; compared to the CF+BI group) was 20% and the “Effect on ADG, ADFC or the GTF ratio” value ([4]; dietary T3 or daily i.v. GRF alone, or in combination) was “did not significantly affect”.

For NC(=O)[C@@H]1CCCN1C(=O)[C@H](Cc1c[nH]cn1)NC(=O)[C@@H]1CCC(=O)N1 [TRH, pyro-L-Glu-L-His-L-Pro-NH2], the Growth rate [5] is given as “capable of increasing the growth rate”, the “Effect on protein:fat ratio” value [6] is given as “decrease” and the “Plasma GH levels” value [7] is given as “elevated”. The “Growth rate and feed efficiency” value ([7]; alone or in combination) was “failed to stimulate growth rate or improve feed efficiency”.

In the case of CCCc1cc(=O)[nH]c(=S)[nH]1 [propylthiouracil], the “Effect on protein:fat ratio” value [6] is listed as “decrease”, the Body fat [8] is listed as “increased accumulation of body fat” and the Plasma insulin levels [8] is listed as “elevated”.

B1: pGH: purified porcine growth hormone (protein, UniProt P01248 27-216, looked up)
Somatotropin: FPAMPLSSLFANAVLRAQHLHQLAADTYKEFERAYIPEGQRYSIQNAQAAFCFSETIPAPTGKDEAQQRSDVELLRFSLLLIQSWLGPVQFLSRVFTNSLVFGTSDRVYEKLKDLEEGIQALMRELEDGSPRAGQILKQTYDKFDTNLRSDDALLKNYGLLSCFKKDLHKAETYLRVMKCRRFVESSCAF
In the case of B1, the “Improvement of feed conversion” value [9] is listed as 7-19%, the “Increase of growth rate” value [9] is listed as 10-14% and the “Increase of muscle mass” value [9] is listed as 24-36%. The “Reduction of carcass fat content” value [9] was 18-25%.

B2: GH: growth hormone (e.g. ncGH, natural chicken GH) (protein, UniProt P08998 26-216, looked up)
Somatotropin: TFPAMPLSNLFANAVLRAQHLHLLAAETYKEFERTYIPEDQRYTNKNSQAAFCYSETIPAPTGKDDAQQKSDMELLRFSLVLIQSWLTPVQYLSKVFTNNLVFGTSDRVFEKLKDLEEGIQALMRELEDRSPRGPQLLRPTYDKFDIHLRNEDALLKNYGLLSCFKKDLHKVETYLKVMKCRRFGESNCTI
For B2, the “Effect on protein:fat ratio” value [6] was “decrease”.
